According to PMC8802806, “Synthesis and Antitumor Activity of Erlotinib Derivatives Linked With 1,2,3-Triazole” (Frontiers in Pharmacology, 2022):
Values joined by “and” are separate entries in the source; they are usually repeats but may differ in a detail not shown here. Equal entries are not always repeated. Where two headings read alike, the source gives them in different places. One block for each compound: values may come before it.

Experiments:
HeLa cells [1] = experiment: Cell antiproliferative activity assay (CCK8); format: cell-based, human; details: for inhibition at 0.25 µM: 250 nM; for inhibition at 0.5 µM: 500 nM; for inhibition at 1 µM: 1000 nM; for inhibition at 2 µM: 2000 nM; for inhibition at 4 µM: 4000 nM; for inhibition at 8 µM: 8000 nM; for inhibition at 16 µM: 16000 nM
Protocol: Cell antiproliferative activity was evaluated by the Cell Counting Kit-8 (CCK8, DOJINDO, Japan) assay. The cells were seeded at a density of 2,000 cells per well into 96-well microplate in 100 μl of growth medium. Cells were incubated at 37°C and 5% CO2 overnight. The next day, 100 μl per well of diluted inhibitor in growth medium was added with the final concentration from 0.1 nM to 100 μM. The cells were treated with DMSO as control. A series of dilutions are made in 0.1% DMSO in assay medium so that the final concentration of DMSO is 0.1% in all of treatments. Cells were incubated at 37°C and 5% CO2 for 48 h. Then, 10 μl of CCK8 was added to each well. The plates were incubated at 37°C for 2 h; after that, the plates were recorded by measuring absorbance at 450 nm with the reference wavelength of 630 nm using an EnVision Multilabel Reader (PerkinElmer). The IC50 values were calculated using GraphPad Prism 6.0 software and determined by the concentration causing a half-maximal percent activity. All assays were conducted with three parallel samples and three repetitions.

HeLa cells [2] = experiment: Flow cytometry detection for cell apoptosis (Annexin V/PI); format: cell-based, human; details: for Q1 (flow cytometry quadrant, Figure 4A) / Q4 (flow cytometry quadrant, Figure 4A) / Q2: FITC-A+ , PE-A+ Freq. of Parent / Q3: FITC-A+ , PE-A- Freq. of Parent: Annexin V/PI; for Q2: FITC-A+ , PE-A+ Freq. of Parent / Q3: FITC-A+ , PE-A- Freq. of Parent / Q2+Q3 (column without head, sum on percent scale): single samples
Protocol: Cell-apoptosis analysis was carried out by flow cytometry using the Annexin V/PI apoptosis kit (Solarbio, China) according to the manufacturer’s manual. Briefly, HeLa (5 × 10^4/well) cells were seeded in 12-well plates for 24 h and then treated with 0.1% DMSO (as control) or various concentrations of compounds 4d, 4k, and 4l for 72 h, respectively. Cells were harvested, washed with PBS, and then incubated with 100 μl of 1 × Annexin V binding buffer containing 1 μl FITC Annexin V for 10 min at RT in the dark. Cells were incubated for another 5 min at room temperature (RT) in the dark after 1 μl PI was added. PBS (200 µl) was added to each tube for flow cytometry analysis (BriCyte E6). The percentages of apoptotic cells were analyzed using FlowJo soft.

HeLa cells [3] = experiment: Flow cytometry detection for cell cycle; format: cell-based, human; details: 6 μM, 48 h
Protocol: HeLa (5 × 10^4/well) cells were seeded in 12-well plates for 24 h and then treated with 0.1% DMSO (as control), compounds 4d, 4k, and 4l of various concentrations for 48 h, respectively. The treated cells were harvested, washed with PBS, and then stained using the cell-cycle staining kit [Multisciences (Lianke) Biotech] according to the manufacturer’s manual. The distribution of cell-cycle phases with different DNA contents was determined by flow cytometry (BriCyte E6) and analyzed using ModFit LT software.

HeLa cells [4] = experiment: Colony formation assay; format: cell-based, human
Protocol: HeLa cells were seeded in six-well plates at the density of 500/well for 24 h, and then treated with 0.1% DMSO (as control), various concentrations of compounds 4d, 4k, and 4l, respectively. The cells were incubated for 2 weeks in a 5% CO2 environment at 37°C for colony formation. The media was gently removed from each of the plates, and then each plate was washed with PBS twice. The colonies were fixed with 4% polyformaldehyde for 10 min and then wash the cells with ddH2O twice. Stain with 1 ml Crystal Violet Staining Solution (Beyotime, China) for 10 min. Wash excess crystal violet with ddH2O and allow dishes to dry. Take pictures of the plate and count the colonies.

[5] = HeLa cells, CCK8, 48 h, mean ± SD, n = 3, read-out: IC50 (μM) HeLa
[6] = Homo sapiens, HeLa, 48 h, HeLa cells, CCK8, 48 h, mean ± SD, n = 3, read-out: IC50 (μM) HeLa
[7] = Homo sapiens, HeLa, HELA 2000cells/well, supplement DataSheet2, Repeat1, read-out: IC50 Repeat1
[8] = Homo sapiens, HeLa, HELA 2000cells/well, supplement DataSheet2, Repeat 2, read-out: IC50 Repeat 2
[9] = Homo sapiens, HeLa, HELA 2000cells/well, supplement DataSheet2, mean of two repeats ± SD, read-out: IC50 mean±SD
[10] = Homo sapiens, HELA 2000cells/well, Repeat1, read-out: Inhibition (%) Repeat1
[11] = Homo sapiens, HELA 2000cells/well, Repeat2, read-out: Inhibition (%) Repeat2

IC50 (HeLa cells [1]; [5]): 4.16 ± 0.48 µM | IC50 (HeLa cells [1]; [6]): 3.79 µM | IC50 (HeLa cells [1]; [7]): 3.72 µM | IC50 (HeLa cells [1]; [8]): 4.68 µM | IC50 (HeLa cells [1]; [9]): 4.16 ± 0.481 µM | melting point: 87 to 90 °C
SMILES: COCCOc1cc2ncnc(Nc3cccc(-c4cn(-c5ccccc5OC)nn4)c3)c2cc1OCCOC [Compound 4k, [6,7-Bis-(2-methoxy-ethoxy)-quinazolin-4-yl]-{3-[1-(2-methoxy-phenyl)-1H-[1,2,3]triazol-4-yl]-phenyl}-amine]
inhibition at 0.25 µM (HeLa cells [1]; [10]): 3.39% | inhibition at 0.25 µM (HeLa cells [1]; [11]): 0% | inhibition at 0.5 µM (HeLa cells [1]; [10]): 4.2% | inhibition at 0.5 µM (HeLa cells [1]; [11]): 6.96% | inhibition at 1 µM (HeLa cells [1]; [10]): 8.3% | inhibition at 1 µM (HeLa cells [1]; [11]): 7.05% | inhibition at 2 µM (HeLa cells [1]; [10]): 22.3% | inhibition at 2 µM (HeLa cells [1]; [11]): 10.7% | inhibition at 4 µM (HeLa cells [1]; [10]): 48.8% | inhibition at 4 µM (HeLa cells [1]; [11]): 43.1% | inhibition at 8 µM (HeLa cells [1]; [10]): 90.1% | inhibition at 8 µM (HeLa cells [1]; [11]): 73.9% | inhibition at 16 µM (HeLa cells [1]; [10]): 96.8% | inhibition at 16 µM (HeLa cells [1]; [11]): 97% | Q1 (flow cytometry quadrant, Figure 4A) (HeLa cells [2]; 3 μM, 72 h): 2.64% | Q4 (flow cytometry quadrant, Figure 4A) (HeLa cells [2]; 3 μM, 72 h): 93.0% | Q2: FITC-A+ , PE-A+ Freq. of Parent (HeLa cells [2]; 3 μM, 72 h): 3.63% | Q3: FITC-A+ , PE-A- Freq. of Parent (HeLa cells [2]; 3 μM, 72 h): 0.75% | Q1 (flow cytometry quadrant, Figure 4A) (HeLa cells [2]; 6 μM, 72 h): 8.66% | Q4 (flow cytometry quadrant, Figure 4A) (HeLa cells [2]; 6 μM, 72 h): 64.2% | Q2: FITC-A+ , PE-A+ Freq. of Parent (HeLa cells [2]; 6 μM, 72 h): 21.9% | Q3: FITC-A+ , PE-A- Freq. of Parent (HeLa cells [2]; 6 μM, 72 h): 5.30% | Q1 (flow cytometry quadrant, Figure 4A) (HeLa cells [2]; 12 μM, 72 h): 24.0% | Q4 (flow cytometry quadrant, Figure 4A) (HeLa cells [2]; 12 μM, 72 h): 11.6% | Q2: FITC-A+ , PE-A+ Freq. of Parent (HeLa cells [2]; 12 μM, 72 h): 61.9% | Q3: FITC-A+ , PE-A- Freq. of Parent (HeLa cells [2]; 12 μM, 72 h): 2.53% | cell cycle phase at which HeLa cells were arrested (HeLa cells [3]): both G0/G1 and G2/M

IC50 (HeLa cells [1]; [5]): 4.51 ± 0.08 µM | IC50 (HeLa cells [1]; [6]): 4.36 µM | IC50 (HeLa cells [1]; [7]): 4.41 µM | IC50 (HeLa cells [1]; [8]): 4.58 µM | IC50 (HeLa cells [1]; [9]): 4.51 ± 0.083 µM | melting point: 95 to 98 °C
SMILES: COCCOc1cc2ncnc(Nc3cccc(-c4cn(-c5ccc(C)cc5)nn4)c3)c2cc1OCCOC [Compound 4l, [6,7-Bis-(2-methoxy-ethoxy)-quinazolin-4-yl]-[3-(1-p-tolyl-1H-[1,2,3]triazol-4-yl)-phenyl]-amine]
inhibition at 0.25 µM (HeLa cells [1]; [10]): 2.96% | inhibition at 0.25 µM (HeLa cells [1]; [11]): 0% | inhibition at 0.5 µM (HeLa cells [1]; [10]): 5.57% | inhibition at 0.5 µM (HeLa cells [1]; [11]): 0.522% | inhibition at 1 µM (HeLa cells [1]; [10]): 8.62% | inhibition at 1 µM (HeLa cells [1]; [11]): 4.7% | inhibition at 2 µM (HeLa cells [1]; [10]): 12.6% | inhibition at 2 µM (HeLa cells [1]; [11]): 6.88% | inhibition at 4 µM (HeLa cells [1]; [10]): 37.2% | inhibition at 4 µM (HeLa cells [1]; [11]): 32% | inhibition at 8 µM (HeLa cells [1]; [10]): 96.7% | inhibition at 8 µM (HeLa cells [1]; [11]): 96.9% | inhibition at 16 µM (HeLa cells [1]; [10]): 99% | inhibition at 16 µM (HeLa cells [1]; [11]): 98.9% | Q1 (flow cytometry quadrant, Figure 4A) (HeLa cells [2]; 3 μM, 72 h): 3.78% | Q4 (flow cytometry quadrant, Figure 4A) (HeLa cells [2]; 3 μM, 72 h): 84.8% | Q2: FITC-A+ , PE-A+ Freq. of Parent (HeLa cells [2]; 3 μM, 72 h): 9.69% | Q3: FITC-A+ , PE-A- Freq. of Parent (HeLa cells [2]; 3 μM, 72 h): 1.71% | Q2: FITC-A+ , PE-A+ Freq. of Parent (HeLa cells [2]; 3 μM, 72 h, listed as e12): 9.69% and 6.86% and 8.36% | Q3: FITC-A+ , PE-A- Freq. of Parent (HeLa cells [2]; 3 μM, 72 h, listed as e12): 1.71% and 1.25% and 0.95% | Q2+Q3 (column without head, sum on percent scale) (HeLa cells [2]; 3 μM, listed as e12): 11.4 and 8.11 and 9.31 | Q1 (flow cytometry quadrant, Figure 4A) (HeLa cells [2]; 6 μM, 72 h): 3.76% | Q4 (flow cytometry quadrant, Figure 4A) (HeLa cells [2]; 6 μM, 72 h): 83.5% | Q2: FITC-A+ , PE-A+ Freq. of Parent (HeLa cells [2]; 6 μM, 72 h): 11.1% | Q3: FITC-A+ , PE-A- Freq. of Parent (HeLa cells [2]; 6 μM, 72 h): 1.72% | Q2: FITC-A+ , PE-A+ Freq. of Parent (HeLa cells [2]; 6 μM, 72 h, listed as e12): 8.62% and 11.1% and 7.43% | Q3: FITC-A+ , PE-A- Freq. of Parent (HeLa cells [2]; 6 μM, 72 h, listed as e12): 1.73% and 1.72% and 1.32% | Q2+Q3 (column without head, sum on percent scale) (HeLa cells [2]; 6 μM, listed as e12): 10.35 and 12.82 and 8.75 | Q1 (flow cytometry quadrant, Figure 4A) (HeLa cells [2]; 12 μM, 72 h): 4.50% | Q4 (flow cytometry quadrant, Figure 4A) (HeLa cells [2]; 12 μM, 72 h): 78.5% | Q2: FITC-A+ , PE-A+ Freq. of Parent (HeLa cells [2]; 12 μM, 72 h): 14.1% | Q3: FITC-A+ , PE-A- Freq. of Parent (HeLa cells [2]; 12 μM, 72 h): 2.91% | Q2: FITC-A+ , PE-A+ Freq. of Parent (HeLa cells [2]; 12 μM, 72 h, listed as e12): 14.8% and 14.1% and 12.5% | Q3: FITC-A+ , PE-A- Freq. of Parent (HeLa cells [2]; 12 μM, 72 h, listed as e12): 2.43% and 2.91% and 2.33% | cell apoptosis in HeLa cells, percentage (HeLa cells [2]; 12 μM, 72 h, three independent experiments): 16.36% | Q2+Q3 (column without head, sum on percent scale) (HeLa cells [2]; 12 μM, listed as e12): 17.23 and 17.01 and 14.83 | Number of Colonies /well (HeLa cells [4]; 6 uM, repeats 1-3): 291 and 246 and 217 | effect on cell colony formation (HeLa cells [4]; 12 μM, 2 weeks): entirely inhibited
